# Test results: a melting point compilation (Tetko et al.)
row,SMILES,melting point [°C]
1,Cc1cc(C)n(Cc2cccc(C(=O)O)c2)n1,220 to 222
2,CCNc1ccc(S(=O)(=O)N(C)C)cc1N,161 to 163
3,CN(CC(=O)O)C(=O)Nc1cccc([N+](=O)[O-])c1,157 to 159
4,O=C(O)CCCCc1ccc(O)c(O)c1,93 to 95
5,Cc1ccc(-c2ccsc2C(=O)NN)cc1,270 to 273
6,Sc1nc2cc(Cl)cnc2[nH]1,352 to 354
7,CCCC(=O)N1CCCCC1C(=O)O (stereo not given),63 to 65
8,O=Cc1c(N2CCOCC2)nc2ccccn12,164 to 166
9,CCc1ccc(C(=O)CCl)cc1,41 to 43
10,O=C(Nc1ccc([N+](=O)[O-])cc1Cl)OCC(F)(F)F,132 to 134
11,NS(=O)(=O)C1CCOCC1,129 to 131
12,Cc1ccc(Oc2ccc(C#N)cc2)cc1,69 to 71
13,CC(C)NC(=S)N(C)C,73 to 75
14,NC(c1ccccc1)c1ccncc1 (stereo not given),40 to 42
15,O=C(O)c1sccc1S(=O)(=O)N1CCSCC1,144 to 146
16,CC(=O)NC1CCN(C(C)C)CC1,84 to 86
17,O=C(NC(Cc1cccnc1)C(=O)O)c1ccccc1 (stereo not given),176 to 178
18,CCn1nc(C)c(C(=O)O)c1C(F)(F)Cl,111 to 113
19,CNC(=O)c1cc(Oc2cc(N)ccc2C)ccn1,141 to 143
20,Cc1cc2c[nH]nc2c(C(=O)O)c1N,174 to 176
21,Cc1ccccc1NC1=NC(C)(C)CS1,159 to 161

row,SMILES,melting point [°C]
1,CC1CC(C(=O)O)CCO1 (stereo not given),44 to 46
2,Nc1ccc(Br)c2ccccc12,102 to 104
3,COC(=O)c1cc2ccc(OCc3ccccc3)cc2[nH]1,136 to 138
4,Cc1ccc2nc(-c3ccc(N4C(=O)C=CC4=O)cc3)sc2c1,259 to 261
5,N#CC(Cl)c1c(F)cccc1Cl (stereo not given),49 to 51
6,O=C(O)c1csc(CCc2ccccc2)n1,132 to 134
7,CCOc1c(N)cc(Cl)cc1Br,45 to 47
8,O=C1COc2ccc(F)cc2N1,204 to 206
9,CCc1ccc(-c2csc(N)n2)cc1,120 to 122
10,N#Cc1ccccc1-c1ccc(CN2CCOCC2)cc1,71 to 73
11,Cc1ccc(S(C)(=O)=O)c(N)c1,103 to 105
12,O=C(O)C(=O)c1ccc(Cl)cc1,87 to 89
13,O=c1c(Cl)c(Cl)cnn1-c1ccc(Cl)cc1Cl,200 to 202
14,CN(C)C(=O)COc1ccc(N)cc1,129 to 131
15,Nc1ccc(Oc2ccc(Cl)nn2)cc1,105 to 107
16,Nc1nncc(-c2cccc(Cl)c2)n1,219 to 221
17,CC(C(=O)O)c1ccc(Br)s1 (stereo not given),55 to 57
18,CN(C)Cc1c(O)ccc2c1CCCC2,77 to 79
19,CN(C)c1ccc(S(N)(=O)=O)cc1N,150 to 154
20,O=Cc1ccc(OCc2cscn2)cc1,78 to 80
21,COc1ccc(-c2nn(Cc3ccccc3)cc2C(=O)O)cc1OC,110 to 114

row,SMILES,melting point [°C]
1,CC1CCN(CCCC(N)=NO)CC1,98 to 100
2,Cc1ccc2c(Cl)c(C(=O)O)sc2c1,271 to 273
3,CN(C)S(=O)(=O)c1ccc(F)c(C(=O)O)c1,163 to 165
4,Cc1nnnn1C(=Cc1ccccc1)C(=O)O,201 to 203
5,CN1CCN(C(=O)c2ccccc2C(=O)O)CC1,274 to 276
6,CCC1(c2ccc(F)cc2)NC(=O)NC1=O (stereo not given),95 to 97
7,OC1CCc2cc(Br)ccc21 (stereo not given),69 to 71
8,O=C(O)c1cccc(S(=O)(=O)N2CCc3ccccc32)c1,174 to 176
9,Cc1c(Br)cc(S(C)(=O)=O)cc1C(=O)O,134 to 136
10,O=C(NCCCl)C1CCCC1,72 to 74
11,COc1ncnc(N)c1C=O,197 to 199
12,CCCc1ccc(-c2ccc(N)cc2)cc1,64 to 66
13,COc1ccccc1NS(=O)(=O)c1cc(N)ccc1N1CCOCC1,197 to 199
14,O=C(O)c1cnc2ccccn2c1=O,251 to 253
15,NC(=O)c1cnn(-c2ncccn2)c1N,256 to 258
16,O=C1NC(=O)C2(CCCC2)N1,140 to 142
17,Nc1cccc(S(=O)(=O)C2CCCC2)c1,117 to 119
18,Cc1ccccc1-c1nnc(CCl)o1,99 to 101
19,NC(=O)NC(=O)CCl,181 to 183
20,O=C(O)c1cnc(Cc2ccccc2)s1,199 to 201
21,CC1CCNc2ccccc2N1 (stereo not given),96 to 98

row,SMILES,melting point [°C]
1,Cn1cc(C=O)c(-c2cc3ccccc3o2)n1,151 to 153
2,CC(=O)c1ccc(OCC#N)cc1,82 to 84
3,CCCN1C(=O)NC(C)(C)C1=O,109 to 111
4,COc1ccc(Br)c(-c2nnc(N)o2)c1,189 to 191
5,O=C(Nc1cccc2ccccc12)OCC(F)(F)F,109 to 111
6,NS(=O)(=O)c1ccccc1OC(F)F,133 to 135
7,Cc1cc(C#N)ccc1NC1CC1,101 to 103
8,NC(=O)C1CCN(S(N)(=O)=O)CC1,228 to 230
9,COc1cc(C=O)ccc1OCC(F)(F)F,66 to 68
10,O=Cc1cc(-n2ccnc2)cs1,123 to 125
11,Cc1cc(C(=O)NCC(C)C)ccc1N,91 to 93
12,CC(=O)CCc1ccc2c(c1)OCO2,50 to 52
13,Cc1cc(C)nc(SCC(=O)NN)n1,119 to 121
14,Nc1ccc(Cl)c(C(=O)NC2CCCCC2)c1,159 to 161
15,Cc1ccc([N+](=O)[O-])cc1S(=O)(=O)N1CCC(C(=O)O)CC1,107 to 109
16,CC1CNc2c(cccc2S(N)(=O)=O)C1 (stereo not given),162 to 164
17,CC(=O)Oc1ccc2ccc(O)cc2c1,157 to 159
18,CNc1cc(C(F)(F)F)nc2ccccc12,159 to 161
19,O=C(CCC1CCCO1)NC1CCC(C(=O)O)CC1 (stereo not given),199 to 201
20,Nc1cccc(-c2cn(Cc3ccccc3)nn2)c1,139 to 141
21,Cc1cc(Oc2ncccc2C#N)ccc1N,158 to 160

# More lines, now with the values ahead:
row,melting point [°C],SMILES
1,169 to 171,CC(C)(C)OC(=O)Nc1ccc(C=O)cn1
2,179 to 181,COc1ccc2[nH]cc(C(=O)O)c2c1
3,135 to 139,O=C(O)CCNC(=O)c1ccco1
4,251 to 253,Cc1ccc(-c2cc(C(=O)O)[nH]n2)cc1
5,37 to 39,COC(=O)c1csc(Br)c1
6,42 to 44,CNC(=O)c1cccc(Cl)n1
7,75 to 77,CC(=O)CC(=O)Nc1ccccc1F
8,76 to 78,CCOC(=O)C(=O)CC(=O)c1cc(Cl)ccc1Cl
9,149 to 151,CNC(=O)c1cccc(NC(=O)C(C)Cl)c1 (stereo not given)
10,139 to 141,O=c1n(CCCl)nc2ccccn12
11,181 to 183,Cc1ccc(N2CCCNC(=O)C2)cc1
12,151 to 153,O=C(O)CCCN1C(=O)CNC1=O
13,108 to 110,CC(C)CN1CCCC(C(=O)O)C1 (stereo not given)
14,141 to 143,O=C(O)c1cnn(-c2ncccc2Cl)c1C(F)(F)C(F)(F)F
15,201 to 203,Cn1cc(C(=O)O)c(-c2cccnc2)n1
16,175 to 177,Cc1nc(C(=O)O)nn1-c1ccccc1C(C)C
17,108 to 110,Clc1noc(-c2ccsc2)n1
18,264 to 266,N#CC(C#N)=C1Nc2ccccc2N=C1Cl
19,38 to 40,NCc1ccc2c(c1)CCO2
20,96 to 98,COc1ccc(NC(=O)CC(C)=O)c(OC)c1
21,108 to 110,CN(N)C(N)=O

row,melting point [°C],SMILES
1,142 to 144,Cc1c(NC(=O)CSc2nnc(N)s2)c(=O)n(-c2ccccc2)n1C
2,179 to 181,COc1cc(C(=O)O)cc(OC)c1OC(F)F
3,199 to 201,O=C(O)c1c[nH]cc1-c1ccc(F)cc1
4,272 to 274,O=c1[nH]cnc2ccc(I)cc12
5,216 to 220,COc1ccc(C(=O)Nc2sc3c(c2C(=O)O)CCCC3)cc1
6,195 to 197,NCCNc1cn[nH]c(=O)c1Cl
7,149 to 151,Cc1cc(NC(=O)C(C)Cl)ccc1Br (stereo not given)
8,180 to 182,Cc1cc(C(=O)CCl)c(C)n1-c1ncn[nH]1
9,162 to 164,O=C1CCc2cc(Cl)ccc2N1
10,88 to 90,COc1ccc(S(=O)(=O)N(C)c2ccc(O)cc2)cc1
11,86 to 88,O=C(CCCl)Nc1ccccc1[N+](=O)[O-]
12,120 to 122,Cn1nc(Br)c2c(NCCN)ncnc21
13,176 to 178,Nc1nc(Cl)c(C=O)c(N2CCCC2)n1
14,44 to 46,Clc1cccc(-c2noc(Cl)n2)c1
15,94 to 96,OC(C1CCCCN1)C(F)(F)F (stereo not given)
16,92 to 94,CCCCn1c(N)cc(=O)n(C)c1=O
17,89 to 91,CCc1ccc(C(=O)O)o1
18,249 to 251,Cc1cncc(C(=O)O)c1O
19,115 to 117,OCc1cn(-c2ccccc2)nc1-c1cccs1
20,212 to 214,CCOC(=O)c1sc(N)c(C#N)c1C
21,97 to 99,Nc1nc(C(F)(F)F)no1

row,melting point [°C],SMILES
1,104 to 106,CC(C)(O)c1ccc(O)cc1
2,160 to 162,CN(C)S(=O)(=O)c1ccc2c(c1)CCCN2
3,143 to 145,NS(=O)(=O)c1c(Cl)cccc1[N+](=O)[O-]
4,130 to 132,CCCCOc1ccc(C(=O)NC(C(=O)O)C(C)O)cc1 (stereo not given)
5,78 to 80,C=CCNC(=O)c1ccc(N)cc1
6,245 to 247,Cc1ccccc1-n1ccnc1S
7,157 to 159,NC(=O)Cc1ccc(N)cc1
8,100 to 102,O=C(CCl)N1CCN(c2ncccn2)CC1
9,76 to 78,Cc1ccnc(Br)c1N
10,87 to 89,O=S(=O)(Cl)c1ccc2ncccc2c1
11,260 to 262,O=c1cc(-c2ccccc2)c2cc(Cl)c(O)cc2o1
12,248 to 250,O=C1CCC(=O)N(c2ccc(C(=O)O)cc2)N1
13,156 to 158,CC(=O)Nc1ccc(SCC(=O)O)cc1
14,163 to 165,Cn1c(=O)n(C)c2cc(Br)ccc21
15,109 to 111,NC(C(=O)O)(c1cccc(Cl)c1)C(F)(F)F (stereo not given)
16,110 to 112,O=C(O)Cc1csc(-c2ccsc2)n1
17,215 to 217,Nc1nc(Br)cn2ccnc12
18,77 to 79,CNC(C)c1sc(-c2ccc(C)cc2)nc1C (stereo not given)
19,251 to 253,Nc1ccc(-c2cn3cccnc3n2)cc1
